Measurements taken from patent publication US9284345B2 (priority 2007, dated 2016).
“And” between values parts separate entries of the source, which are not always exact repeats. Equal values may be shown once.

Experiments:
Intact Rat = assay: In vivo activity in intact rat (organ and muscle weight)
Immature Rat CX + DHT = assay: animal or person; format: in vivo; conditions: rat, in vivo; for In Vivo Anti-A Rat CX + DHT % change vs DHT (CX CONT = −100%) Bulbo / In Vivo Anti-A Rat CX + DHT % change vs DHT (CX CONT = −100%) SV / In Vivo Anti-A Rat CX + DHT % change vs DHT (CX CONT = −100%) VP: po
in vivo = conditions: male, Sprague-Dawley, rat, plasma, po, 0.5 mg/animal
[1] = tested on: Shionogi mouse mammary carcinoma cells; assay: cells; format: cell-based; conditions: for inhibition at 0.0003 µM: Mus musculus, read-out: % of inh of DHT at 10^−7 M (Basal = 100%); for Ki: read-out: Shionogi cells Antiandrogenic activity Ki
Immature Rat CX = conditions: for In Vivo Agonist % Change vs CX (DHT = +100%) SV / In Vivo Agonist % Change vs CX (DHT = +100%) VP: po
Human Androgen Receptor = target: T1, Human Androgen Receptor (Homo sapiens, UniProt P10275); format: binding
T1 construct: expressed in transfected cells; host or cells: HEK-293 cells stably transfected with the pCMVneo-hAR plasmid (G-418 selection); cytosol used
T1 sequence (P10275 1-920): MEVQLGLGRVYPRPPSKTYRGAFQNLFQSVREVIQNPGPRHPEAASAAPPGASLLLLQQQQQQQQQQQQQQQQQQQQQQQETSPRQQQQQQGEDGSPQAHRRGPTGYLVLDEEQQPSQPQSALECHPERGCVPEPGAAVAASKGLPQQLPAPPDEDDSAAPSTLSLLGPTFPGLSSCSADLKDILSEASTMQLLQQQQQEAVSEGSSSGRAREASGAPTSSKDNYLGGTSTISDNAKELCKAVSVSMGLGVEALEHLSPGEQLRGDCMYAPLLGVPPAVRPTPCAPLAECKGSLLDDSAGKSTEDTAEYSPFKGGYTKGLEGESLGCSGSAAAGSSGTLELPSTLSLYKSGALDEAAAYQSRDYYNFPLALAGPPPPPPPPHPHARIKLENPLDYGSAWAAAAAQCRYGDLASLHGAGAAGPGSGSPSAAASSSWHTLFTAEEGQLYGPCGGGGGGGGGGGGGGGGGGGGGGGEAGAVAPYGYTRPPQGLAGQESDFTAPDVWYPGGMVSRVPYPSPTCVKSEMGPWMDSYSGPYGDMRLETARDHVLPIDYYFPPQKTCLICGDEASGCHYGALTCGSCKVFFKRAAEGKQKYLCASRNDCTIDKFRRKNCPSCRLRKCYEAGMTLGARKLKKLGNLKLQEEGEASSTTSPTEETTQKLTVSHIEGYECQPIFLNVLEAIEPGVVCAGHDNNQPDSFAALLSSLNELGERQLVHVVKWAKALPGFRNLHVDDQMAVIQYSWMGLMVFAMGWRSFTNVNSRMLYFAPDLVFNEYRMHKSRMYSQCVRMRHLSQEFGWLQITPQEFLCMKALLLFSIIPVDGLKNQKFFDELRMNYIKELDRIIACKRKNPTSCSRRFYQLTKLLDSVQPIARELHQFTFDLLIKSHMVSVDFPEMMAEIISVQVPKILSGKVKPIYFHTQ

androgen receptor = assay: Antiandrogen / SARM / androgen profile observed on structural change; conditions: structure-activity observation in estratriene derivatives
Source text: Preferred positions on the steroid to this change in activities are 3, 4, 11β, 16 and 17α. […] Moreover, when we changed the 4-fluoro by a 4-chloro on EM-6583, we obtained a pure androgen (EM-5697). Similarly, when we increased the size of the chain at 17α-position on (1,4-phenylene as a spacer group), EM-8419 became a SARM. Again, when we changed the 4-fluoro by a 4-chloro on EM-8419, we obtained a pure androgen (EM-5313).
We also believed that a larger size increase could reverse the observed tendency (androgen to SARM or antiandrogen). Thus, it is not obvious to make good predictions of the biological activity of this compound family but some trends are observable.

Rat Androgen Receptor = target: T2, Rat Androgen Receptor (Rattus norvegicus, UniProt P15207); assay: Androgen receptor binding assay (HAP, [3H]R1881), rat prostate cytosol
T2 construct: ventral prostates collected from 24 h-gonadectomized rats were homogenized in buffer A; from tissue; host or cells: rat ventral prostate cytosol (24 h-gonadectomized rats)
T2 sequence (P15207 1-902): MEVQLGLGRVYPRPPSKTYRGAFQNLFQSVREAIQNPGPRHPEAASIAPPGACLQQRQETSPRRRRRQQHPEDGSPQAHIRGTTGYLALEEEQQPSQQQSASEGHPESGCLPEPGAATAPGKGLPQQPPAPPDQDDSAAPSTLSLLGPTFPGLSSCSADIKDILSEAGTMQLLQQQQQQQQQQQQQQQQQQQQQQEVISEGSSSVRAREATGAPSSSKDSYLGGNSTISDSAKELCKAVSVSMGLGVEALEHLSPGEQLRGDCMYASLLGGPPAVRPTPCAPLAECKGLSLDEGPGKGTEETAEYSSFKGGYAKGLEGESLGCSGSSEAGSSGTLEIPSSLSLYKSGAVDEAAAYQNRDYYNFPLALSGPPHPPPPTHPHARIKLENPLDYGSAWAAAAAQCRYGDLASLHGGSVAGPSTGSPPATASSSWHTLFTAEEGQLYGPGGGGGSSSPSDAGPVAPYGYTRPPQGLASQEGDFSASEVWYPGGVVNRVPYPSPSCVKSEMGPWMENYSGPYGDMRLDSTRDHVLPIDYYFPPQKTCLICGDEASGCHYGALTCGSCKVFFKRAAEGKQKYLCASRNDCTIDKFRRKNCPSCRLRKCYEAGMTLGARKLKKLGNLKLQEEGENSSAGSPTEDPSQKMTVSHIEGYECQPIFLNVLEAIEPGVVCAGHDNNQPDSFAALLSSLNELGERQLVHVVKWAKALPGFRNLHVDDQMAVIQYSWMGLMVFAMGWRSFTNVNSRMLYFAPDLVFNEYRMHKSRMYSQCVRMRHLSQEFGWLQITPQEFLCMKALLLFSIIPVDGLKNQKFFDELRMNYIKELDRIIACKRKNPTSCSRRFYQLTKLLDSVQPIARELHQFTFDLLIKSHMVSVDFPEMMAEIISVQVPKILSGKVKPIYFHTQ
Method: On the morning of the binding assay, ventral prostates collected from 24 h-gonadectomized rats were homogenized in buffer A (1 g of tissue in 5 mL) and the homogenate was centrifuged as described above.
Androgen binding is measured using the hydroxylapatite (HAP) assay. In brief, the radioactive steroid [^3H]R1881 solubilized in ethanol is diluted with buffer B (10 mM Tris-HCl, 1.5 mM EDTA disodium salt, 10 mM α-monothioglycerol, pH 7.4). Aliquots of the cell or prostate cytosol preparation (0.1 ml) are then incubated with 5 nM [^3H]R1881 (0.1 ml, ˜100 000 cpm) in the presence or absence of the indicated concentrations of unlabeled compounds (0.1 ml, prepared in buffer B containing 30% ethanol) for 16-18 h at 0-4° C. Triamcinolone acetonide (TAC; 100 nM) is added to mask progesterone receptors. Unbound steroids are separated by incubation for 40 min at 0-4° C. with 0.3 ml HAP prepared in buffer P (50 mM Tris-HCl, 10 mM KH2PO4, pH 7.4). After incubation with HAP and 10 min of centrifugation at 1000×g, the pellet is washed 3 times with 1 ml of buffer P. Thereafter, the radioactivity is extracted from the pellet by incubation at room temperature for 60 min with 1 ml of ethanol. After centrifugation, the supernatant is decanted into a scintillation vial and the pellet is extracted again with ethanol. After the addition of scintillation liquid, the radioactivity is measured in a liquid scintillation counter.

[2] = 0.1 mg/rat/os/ID, bulbocavernosus muscles weight
[3] = 0.1 mg/rat/os/ID, prostate weight

SMILES | In Vivo Intact Rat % change vs Intact CONT (Intact CONT = +100%; CX CONT = 0%) Bulbo (Intact Rat; [2]) | In Vivo Intact Rat % change vs Intact CONT (Intact CONT = +100%; CX CONT = 0%) VP (Intact Rat; [3]) | In Vivo Intact Rat % change vs Intact CONT (Intact CONT = +100%; CX CONT = 0%) SZ (Intact Rat; rat, in vivo) | In Vivo Anti-A Rat CX + DHT % change vs DHT (CX CONT = −100%) Bulbo (Immature Rat CX + DHT) | In Vivo Anti-A Rat CX + DHT % change vs DHT (CX CONT = −100%) SV (Immature Rat CX + DHT) | In Vivo Anti-A Rat CX + DHT % change vs DHT (CX CONT = −100%) VP (Immature Rat CX + DHT) | % of stim of basal at 10^−7M (% over basal) [1] | % of stim of basal at 10^−7 M (DHT = 100%) [1] | inhibition at 0.0003 µM [1] | In Vivo Agonist Rat CX % change vs CX (DHT CONT = +100%) Bulbo (Immature Rat CX) | In Vivo Agonist Rat CX % change vs CX (DHT CONT = +100%) SV (Immature Rat CX) | In Vivo Agonist Rat CX % change vs CX (DHT CONT = +100%) VP (Immature Rat CX) | Human Androgen Receptor Binding RBA (%) R1881 = 100% (Human Androgen Receptor) | activity profile (antiandrogen, SARM or androgen) (androgen receptor) | Rat Androgen Receptor Binding RBA (%) R1881 = 100% (Rat Androgen Receptor) | Shionogi cells Antiandrogenic activity Ki OH-Flu/Ki compound [1] | Ki [1] | further results
C[C@@]1(Cc2ccc(C#N)cc2)CC2C3CCc4c(C#N)cccc4C3CC[C@]2(C)[C@H]1O (stereo partly shown) [EM-3585] | +263 ± 64% | +82 ± 17% | +114 ± 23% | [+67 ± 21] % | [−2 ± 15] % | [−26 ± 7] % | +279% | +63% | 41% | +74 ± 18% | +13 ± 4% | +20 ± 4% | 55% | – | – | – | – | AUC(0-t) (in vivo): 2370 ± 253 ng·h/mL
C[C@]12CCC3c4ccc(C#N)c(Cl)c4CCC3C1CC[C@@]2(O)Cc1ccc(-c2ccc[n+]([O-])c2)cc1 (stereo partly shown) [EM-5313] | – | – | – | – | – | – | – | – | – | – | – | – | – | pure androgen | – | – | – | –
CC1CC2(C)C(CCC2(O)Cc2cc[n+]([O-])cc2)C2CCc3c(ccc(C#N)c3Cl)C12 (stereo not shown) [EM-5697] | – | – | – | – | – | – | – | – | – | – | – | – | – | pure androgen | – | – | – | –
Cc1c(C#N)ccc2c1CCC1C2CCC2(C)C1CCC2(O)Cc1cc[n+]([O-])cc1 (stereo not shown) [EM-5985] | – | – | – | – | – | – | – | – | – | – | – | – | 2.0 ± 0.3% | – | 0.6% | 12 and 12 ± 4 | 0.9 ± 0.2 nM | inhibition of DHT-stimulated seminal vesicle weight (Immature Rat CX + DHT): 84%; inhibition of DHT-stimulated ventral prostate weight (Immature Rat CX + DHT): 69%; potency on rat androgen-sensitive parameters relative to currently available antiandrogens (Immature Rat CX + DHT): approximately 5 times; activity on the basal level of Shionogi cell proliferation [1]: none of these compounds has any activity; In Vivo Agonist % Change vs CX (DHT = +100%) SV (Immature Rat CX): [0] %; In Vivo Agonist % Change vs CX (DHT = +100%) VP (Immature Rat CX): [0] %; affinity for the human compared to the rat androgen receptor (Human Androgen Receptor): approximately 3 fold
C[C@H]1C[C@@]2(C)C(CC[C@@]2(O)Cc2cc[n+]([O-])cc2)C2CCc3c(ccc(C#N)c3F)C21 (stereo partly shown) [EM-6583] | +145 ± 46% | +90 ± 2% | +71 ± 16% | – | −75 ± 5% | −46 ± 6% | +138 ± 49% | +52 ± 27% | 46% | +93 ± 15% | +17 ± 3% | +37 ± 7% | 21% | became a SARM | – | – | – | –
CC12CCC3c4ccc(C#N)c(F)c4CCC3C1CCC2(O)Cc1cc[n+]([O-])cc1F (stereo not shown) [EM-8454] | – | – | – | – | – | – | – | – | – | – | – | – | ~1% | – | ~0.3% | 2.7 | 2.2 nM | In Vivo Agonist % Change vs CX (DHT = +100%) SV (Immature Rat CX): 0%; In Vivo Agonist % Change vs CX (DHT = +100%) VP (Immature Rat CX): 0%
Cc1c[n+]([O-])ccc1CC1(O)CCC2C3CCc4c(ccc(C#N)c4F)C3CCC21C (stereo not shown) [EM-8505] | – | – | – | – | – | – | – | – | – | – | – | – | ~0.3% | – | ~0.3% | 4.4 | 4.2 nM | –
CC[C@H]1C[C@@]2(C)C(CC[C@@]2(O)Cc2ccncc2F)C2CCc3c(ccc(C#N)c3F)C21 (stereo partly shown) [EM-9016] | +108 ± 21% | +53 ± 6% | +44 ± 6% | +10 ± 9% | −39 ± 5% | −44 ± 3% | +45% | +39% | 46% | +66 ± 25% | +17 ± 1% | +13 ± 2% | 2250% and 2250 ± 570% | – | – | – | – | –
CCC1CC2(C)C(CCC2(O)Cc2cc[n+]([O-])cc2F)C2CCc3c(ccc(C#N)c3F)C12 (stereo not shown) [EM-9017] | – | – | +57 ± 6% | +3 ± 11% | −54 ± 2% | −42 ± 2% | +36% | +31% | – | +102 ± 12% | +22 ± 2% | +24 ± 5% | 139% | – | – | – | – | In Vivo Intact Rat % change vs Intact CONT (Intact CONT = +100%; CX CONT = 0%) Bulbo (Intact Rat; rat, in vivo): +154 ± 13%; In Vivo Intact Rat % change vs Intact CONT (Intact CONT = +100%; CX CONT = 0%) VP (Intact Rat; rat, in vivo): +47 ± 5%; inhibition of intact rat prostate (Intact Rat; rat, in vivo): 53±5%; inhibition of intact rat seminal vesicles (Intact Rat; rat, in vivo): 43±6%; stimulation of the bulbocavernosus muscles in intact rat (Intact Rat; rat, in vivo): 54±13%; % of inh of DHT at 10^−7 M (Basal = 100%) ([1]; 0.0003 µM): +64%
